# In patent US12606548B2, “Fungicidal oxadiazoles” (FMC CORPORATION, priority 2019, dated 2026):
# Marks after values point to notes of the source that are not given here.
# Key:
# Format in all cases: in vivo
# Phakopsora pachyrhizi = test: Test A: test suspension sprayed on soybean seedlings, inoculated next day with Phakopsora pachyrhizi (Asian soybean rust), visual disease rating; conditions: for Test A rating (% disease control): relative to the controls
# Description: General protocol for preparing test suspensions for Tests A-C: the test compounds were first dissolved in acetone in an amount equal to 3% of the final volume and then suspended at the desired concentration (in ppm) in acetone and purified water (50/50 mix by volume) containing 250 ppm of the surfactant PEG400 (polyhydric alcohol esters). The resulting test suspensions were then used in Tests A-C. The test suspension was sprayed to the point of run-off on soybean seedlings. The following day the seedlings were inoculated with a spore suspension of Phakopsora pachyrhizi (the causal agent of Asian soybean rust) and incubated in a saturated atmosphere at 22° C., for 24 h and then moved to a growth chamber at 22° C., for 8 days, after which time visual disease ratings were made. […] A dash (-) indicates the compound was not tested. The test suspensions were sprayed at the concentration listed in the column “Rate in ppm”, unless otherwise indicated.
# [1] = tested on: Puccinia recondita f. sp. tritici; test: Test C: test suspension sprayed on wheat seedlings, inoculated next day with Puccinia recondita f. sp. tritici (wheat leaf rust), visual disease rating; conditions: for Test C rating (% disease control): relative to the controls
# Description: General protocol for preparing test suspensions for Tests A-C: the test compounds were first dissolved in acetone in an amount equal to 3% of the final volume and then suspended at the desired concentration (in ppm) in acetone and purified water (50/50 mix by volume) containing 250 ppm of the surfactant PEG400 (polyhydric alcohol esters). The resulting test suspensions were then used in Tests A-C. The test suspension was sprayed to the point of run-off on wheat seedlings. The following day the seedlings were inoculated with a spore suspension of Puccinia recondita f. sp. tritici; (the causal agent of wheat leaf rust) and incubated in a saturated atmosphere at 20° C., for 24 h, and then moved to a growth chamber at 20° C., for 6 days, after which time visual disease ratings were made. […] A dash (-) indicates the compound was not tested. The test suspensions were sprayed at the concentration listed in the column “Rate in ppm”, unless otherwise indicated.
# Zymoseptoria tritici = test: Test B: test suspension sprayed on wheat seedlings, inoculated next day with Zymoseptoria tritici (wheat leaf blotch), visual disease rating; conditions: for Test B rating (% disease control): relative to the controls
# Description: General protocol for preparing test suspensions for Tests A-C: the test compounds were first dissolved in acetone in an amount equal to 3% of the final volume and then suspended at the desired concentration (in ppm) in acetone and purified water (50/50 mix by volume) containing 250 ppm of the surfactant PEG400 (polyhydric alcohol esters). The resulting test suspensions were then used in Tests A-C.
# The test suspension was sprayed to the point of run-off on wheat seedlings. The following day the seedlings were inoculated with a spore suspension of Zymoseptoria tritici (the causal agent of wheat leaf blotch) and incubated in a saturated atmosphere at 24° C., for 48 h, and then moved to a growth chamber at 20° C., for 17 days, after which time visual disease ratings were made.
# Results for Tests A-C are given in Table A. In the Table, a rating of 100 indicates 100% disease control and a rating of 0 indicates no disease control (relative to the controls). A dash (-) indicates the compound was not tested. The test suspensions were sprayed at the concentration listed in the column “Rate in ppm”, unless otherwise indicated. An asterisk “*” next to the rating indicates a 250 ppm test suspension was used, a double asterisk “**” next to the rating indicates a 100 ppm test suspension was used, and a triple asterisk “***” next to the rating indicates a 50 ppm test suspension was used.
# [2] = 100 ppm test suspension (double asterisk **)
Structure (SMILES),Test A disease control rating (Phakopsora pachyrhizi; 10 ppm test suspension),Test C disease control rating ([1]; 10 ppm test suspension),Test B disease control rating (Zymoseptoria tritici; 250 ppm test suspension),Test A rating (% disease control) (Phakopsora pachyrhizi; Rate 10 ppm test suspension),Test C rating (% disease control) ([1]; Rate 10 ppm test suspension),Test B rating (% disease control) (Zymoseptoria tritici; 250 ppm test suspension),also measured
CCOC(=O)c1cnn(C(C)c2ccc(-c3noc(C(F)(F)F)n3)s2)c1 (racemic) [Compound 192],100%,100%,99* %,,,,
Cc1ccccc1C(O)c1ccc(-c2noc(C(F)(F)F)n2)cc1 (racemic) [Compound 497],,,,100%,0%,5* %,
CN(C)C(=O)C1=NOC(C)(Cn2cc(-c3noc(C(F)(F)F)n3)cn2)C1 (racemic) [compound 306],,,10* %,,,,Test A disease control rating (Phakopsora pachyrhizi; 50 ppm test suspension): 0%; Test C disease control rating ([1]; 50 ppm test suspension): 0%
OC(c1ccc(-c2noc(C(F)(F)F)n2)cc1)c1cccc(F)c1 (racemic) [compound 498],,,,100%,0%,43* %,
OC(c1ccc(-c2noc(C(F)(F)F)n2)cc1)c1cccc(Cl)c1 (racemic) [compound 499],,,,,,48* %,Test A rating (% disease control) (Phakopsora pachyrhizi; Rate 250 ppm test suspension): 100%; Test C rating (% disease control) ([1]; Rate 250 ppm test suspension): 100%
OC(c1ccc(F)cc1)c1ccc(-c2noc(C(F)(F)F)n2)cc1 (racemic) [compound 500],,,,,,5* %,Test A rating (% disease control) (Phakopsora pachyrhizi; Rate 250 ppm test suspension): 100%; Test C rating (% disease control) ([1]; Rate 250 ppm test suspension): 100%
"COC(=O)c1coc(COc2ccc(-c3noc(C(F)(F)F)n3)cc2)n1 [Compound 403, methyl 2-[[4-[5-(trifluoromethyl)-1,2,4-oxadiazol-3-yl]-phenoxy]methyl]oxazole-4-carboxylate]",,,,60%,0%,47* %,
CCOC(=O)c1cccc(Cc2ccc(-c3noc(C(F)(F)F)n3)cc2)c1 [Compound 454],,,,100%,0%,47* %,
COC(=O)c1csc(Cc2ccc(-c3noc(C(F)(F)F)n3)cc2)c1 [Compound 455],,,,100%,0%,66* %,
COC(=O)c1coc(Cc2ccc(-c3noc(C(F)(F)F)n3)cc2)n1 [Compound 490],,,,100%,74%,94* %,
ON=Cc1cnn(Cc2ccc(-c3noc(C(F)(F)F)n3)cc2)c1 [compound 20],,,99%,,,,Test A disease control rating (Phakopsora pachyrhizi; 250 ppm test suspension): 100%; Test C disease control rating ([1]; 250 ppm test suspension): 100%
COC(=O)c1cnn(Cc2ccc(-c3noc(C(F)(F)F)n3)cc2)c1 [compound 21],100%,100%,,,,,Test B disease control rating (Zymoseptoria tritici; [2]): 97** %
N#CCOC(=O)c1cnn(Cc2ccc(-c3noc(C(F)(F)F)n3)cc2)c1 [compound 57],100%,100%,,,,,Test B disease control rating (Zymoseptoria tritici; [2]): 99** %
CCCOC(=O)c1cnn(Cc2ccc(-c3noc(C(F)(F)F)n3)s2)c1 [compound 198],100%,99%,,,,,Test B disease control rating (Zymoseptoria tritici; [2]): 94** %
O=C(NCC(F)F)c1coc(Cc2ccc(-c3noc(C(F)(F)F)n3)cc2)n1 [compound 225],100%,100%,99* %,,,,
N#CCCNC(=O)c1coc(Cc2ccc(-c3noc(C(F)(F)F)n3)cc2)n1 [compound 229],100%,100%,94* %,,,,
COCCNC(=O)c1coc(Cc2ccc(-c3noc(C(F)(F)F)n3)cc2)n1 [compound 257],100%,100%,99* %,,,,
O=C(NCCn1cccn1)c1coc(Cc2ccc(-c3noc(C(F)(F)F)n3)cc2)n1 [compound 264],100%,99%,99* %,,,,

Structure (SMILES),Test A disease control rating (Phakopsora pachyrhizi; 10 ppm test suspension),Test C disease control rating ([1]; 10 ppm test suspension),Test B disease control rating (Zymoseptoria tritici; 250 ppm test suspension),Test A rating (% disease control) (Phakopsora pachyrhizi; Rate 10 ppm test suspension),Test C rating (% disease control) ([1]; Rate 10 ppm test suspension),Test B rating (% disease control) (Zymoseptoria tritici; 250 ppm test suspension),also measured
CCOC(=O)c1cnn(Cc2ccc(-c3noc(C(F)(F)F)n3)cc2)c1 [compound 276],,,35* %,,,,Test A disease control rating (Phakopsora pachyrhizi; 50 ppm test suspension): 100%; Test C disease control rating ([1]; 50 ppm test suspension): 80%
O=C(NCC(F)(F)F)c1coc(Cc2ccc(-c3noc(C(F)(F)F)n3)cc2)n1 [compound 316],100%,100%,5* %,,,,
O=C(NCCC(F)(F)F)c1coc(Cc2ccc(-c3noc(C(F)(F)F)n3)cc2)n1 [compound 330],100%,100%,96* %,,,,
CCOC(=O)c1cnn(COc2ccc(-c3noc(C(F)(F)F)n3)cc2)c1 [compound 376],100%,68%,49* %,,,,
N#CCNC(=O)c1csc(Cc2ccc(-c3noc(C(F)(F)F)n3)cc2)n1 [compound 393],,,,100%,100%,94* %,
COCCNC(=O)c1csc(Cc2ccc(-c3noc(C(F)(F)F)n3)cc2)n1 [compound 394],,,,100%,100%,99* %,
O=C(NC1CCC(F)(F)CC1)c1coc(Cc2ccc(-c3noc(C(F)(F)F)n3)cc2)n1 [compound 395],,,,95%,97%,0* %,
O=C(NCCn1cccn1)c1csc(Cc2ccc(-c3noc(C(F)(F)F)n3)cc2)n1 [compound 396],,,,100%,100%,28* %,
O=C(NCCC(F)(F)F)c1csc(Cc2ccc(-c3noc(C(F)(F)F)n3)cc2)n1 [compound 397],,,,100%,98%,82* %,
O=C(NCCCC(F)(F)F)c1coc(Cc2ccc(-c3noc(C(F)(F)F)n3)cc2)n1 [compound 398],,,,100%,97%,80* %,
O=C(NCC=C(Cl)Cl)c1coc(Cc2ccc(-c3noc(C(F)(F)F)n3)cc2)n1 [compound 399],,,,100%,99%,10* %,
O=C(NCCF)c1coc(Cc2ccc(-c3noc(C(F)(F)F)n3)cc2)n1 [compound 400],,,,100%,100%,99* %,
O=C(NCCOC(F)(F)F)c1coc(Cc2ccc(-c3noc(C(F)(F)F)n3)cc2)n1 [compound 401],,,,100%,99%,77* %,
O=C(c1coc(Cc2ccc(-c3noc(C(F)(F)F)n3)cc2)n1)N1CCC(F)(F)C1 [compound 402],,,,100%,90%,96* %,
CCOC(=O)c1csc(COc2ccc(-c3noc(C(F)(F)F)n3)cc2)n1 [compound 404],,,,0%,68%,0* %,
CN(C)C(=O)C1=NOC(CN2CCC(c3noc(C(F)(F)F)n3)CC2)C1 (stereo not drawn) [compound 426],,,,,,9* %,Test A rating (% disease control) (Phakopsora pachyrhizi; Rate 250 ppm test suspension): 0%; Test C rating (% disease control) ([1]; Rate 250 ppm test suspension): 0%
O=C(c1ccc(Cc2ccc(-c3noc(C(F)(F)F)n3)cc2)o1)C(F)(F)F [compound 450],,,,94%,0%,41* %,
FC(F)(F)c1nc(-c2ccc(Cc3ccccc3)cc2)no1 [compound 451],,,,99%,0%,8* %,
